Experimental data taken from patent US20240246964A1 (Arbutus Biopharma Corporation, priority 2021, published 2024).
“And” between values parts separate entries of the source, which are not always exact repeats. Equal entries are not always repeated.

Target: human PD-L1 (Homo sapiens (Human), UniProt Q9NZQ7)
Experiment: T cell activation luciferase reporter cell culture system (T Cell Activation Assay)
Assay type: cell-based
Conditions: luciferase reporter assay; PD-L1 aAPC/CHO-K1 cells with PD-1 effector Jurkat T cells

Chain of human PD-L1 (Q9NZQ7 19-290): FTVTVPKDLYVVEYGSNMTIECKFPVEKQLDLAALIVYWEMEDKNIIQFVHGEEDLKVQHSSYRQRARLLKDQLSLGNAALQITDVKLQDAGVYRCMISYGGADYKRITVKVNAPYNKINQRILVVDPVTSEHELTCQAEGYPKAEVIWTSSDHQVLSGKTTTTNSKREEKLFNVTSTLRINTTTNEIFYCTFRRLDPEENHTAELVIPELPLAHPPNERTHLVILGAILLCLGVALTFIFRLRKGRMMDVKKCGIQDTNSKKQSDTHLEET

EC50	Compound
54.1 nM	COc1cc(-c2nccc(-c3cccc(-c4ccc(CNC[C@@H]5CCC(=O)N5)c(OC)n4)c3Cl)c2Cl)cc2c1CCN(C[C@H](C)O)C2 [Cmpd 44, (S)-5-((((6-(2-chloro-3-(3-chloro-2-(2-((S)-2-hydroxypropyl)-5-methoxy-1,2,3,4-tetrahydroisoquinolin-7-yl)pyridin-4-yl)phenyl)-2-methoxypyridin-3-yl)methyl)amino)methyl)pyrrolidin-2-one]
892 nM	COc1cc(-c2nccc(-c3cccc(-c4ccc(CNC[C@@H]5CCC(=O)N5)c(OC)n4)c3Cl)c2Cl)cc2c1CCN(CC(C)(C)O)C2 [Cmpd 45, (S)-5-((((6-(2-chloro-3-(3-chloro-2-(2-(2-hydroxy-2-methylpropyl)-5-methoxy-1,2,3,4-tetrahydroisoquinolin-7-yl)pyridin-4-yl)phenyl)-2-methoxypyridin-3-yl)methyl)amino)methyl)pyrrolidin-2-one]
171 nM	COc1nc(-c2cccc(-c3ccnc(-c4cc(F)c5c(c4)CCN(CC(C)(C)O)C5)c3Cl)c2Cl)ccc1CNC[C@@H]1CCC(=O)N1 [Cmpd 46, (S)-5-((((6-(2-chloro-3-(3-chloro-2-(8-fluoro-2-(2-hydroxy-2-methylpropyl)-1,2,3,4-tetrahydroisoquinolin-6-yl)pyridin-4-yl)phenyl)-2-methoxypyridin-3-yl)methyl)amino)methyl)pyrrolidin-2-one]
10000 nM	COc1nc(-c2cccc(-c3ccnc(-c4cc(F)c5c(c4)CN(CC(C)(C)O)CC5)c3Cl)c2Cl)ccc1CNC[C@@H]1CCC(=O)N1 [Cmpd 47, (S)-5-((((6-(2-chloro-3-(3-chloro-2-(5-fluoro-2-(2-hydroxy-2-methylpropyl)-1,2,3,4-tetrahydroisoquinolin-7-yl)pyridin-4-yl)phenyl)-2-methoxypyridin-3-yl)methyl)amino)methyl)pyrrolidin-2-one]
37 nM	COc1cc(-c2nccc(-c3cccc(-c4ccc(CNC[C@@H]5CCC(=O)N5)c(OC)n4)c3Cl)c2Cl)cc2c1CN(CCC(C)(C)O)CC2 [Cmpd 49, (S)-5-((((6-(2-chloro-3-(3-chloro-2-(2-(3-hydroxy-3-methylbutyl)-8-methoxy-1,2,3,4-tetrahydroisoquinolin-6-yl)pyridin-4-yl)phenyl)-2-methoxypyridin-3-yl)methyl)amino)methyl)pyrrolidin-2-one]
29.1 nM	COc1cc(-c2nccc(-c3cccc(-c4ccc(CNC[C@@H]5CCC(=O)N5)c(OC)n4)c3Cl)c2Cl)cc2c1CN(C[C@H](C)O)CC2 [Cmpd 50, (S)-5-((((6-(2-chloro-3-(3-chloro-2-(2-((S)-2-hydroxypropyl)-8-methoxy-1,2,3,4-tetrahydroisoquinolin-6-yl)pyridin-4-yl)phenyl)-2-methoxypyridin-3-yl)methyl)amino)methyl)pyrrolidin-2-one]
74.5 nM	COc1cc(-c2nccc(-c3cccc(-c4ccc(CNC[C@@H]5CCC(=O)N5)c(OC)n4)c3Cl)c2Cl)cc2c1CN(CCC1(O)CCC1)CC2 [Cmpd 51, (S)-5-((((6-(2-chloro-3-(3-chloro-2-(2-(2-(1-hydroxycyclobutyl)ethyl)-8-methoxy-1,2,3,4-tetrahydroisoquinolin-6-yl)pyridin-4-yl)phenyl)-2-methoxypyridin-3-yl)methyl)amino)methyl)pyrrolidin-2-one]
399 nM	COc1cc(-c2nccc(-c3cccc(-c4ccc(CNC[C@@H]5CCC(=O)N5)c(OC)n4)c3Cl)c2Cl)cc2c1CN(CC(O)C(C)C)CC2 (stereo partly drawn) [Cmpd 53, (5S)-5-((((6-(2-chloro-3-(3-chloro-2-(2-(2-hydroxy-3-methylbutyl)-8-methoxy-1,2,3,4-tetrahydroisoquinolin-6-yl)pyridin-4-yl)phenyl)-2-methoxypyridin-3-yl)methyl)amino)methyl)pyrrolidin-2-one]
24.3 nM and 21.5 nM	COc1cc(-c2nccc(-c3cccc(-c4ccc(CNC[C@@H]5CCC(=O)N5)c(OC)n4)c3Cl)c2Cl)cc2c1CN(CCO)CC2 [Cmpd 54, (S)-5-((((6-(2-chloro-3-(3-chloro-2-(2-(2-hydroxyethyl)-8-methoxy-1,2,3,4-tetrahydroisoquinolin-6-yl)pyridin-4-yl)phenyl)-2-methoxypyridin-3-yl)methyl)amino)methyl)pyrrolidin-2-one]
19.8 nM	COc1cc(-c2nccc(-c3cccc(-c4ccc5c(CNC6CCN(C(C)=O)CC6)cn(C)c5n4)c3Cl)c2Cl)ccc1CNC[C@@H]1CCC(=O)N1 [Cmpd 57, (S)-5-(((4-(4-(3-(3-(((1-acetylpiperidin-4-yl)amino)methyl)-1-methyl-1H-pyrrolo[2,3-b]pyridin-6-yl)-2-chlorophenyl)-3-chloropyridin-2-yl)-2-methoxybenzyl)amino)methyl)pyrrolidin-2-one]
37.3 nM	COc1cc(-c2nccc(-c3cccc(-c4ccc5c(CNC[C@@H]6CCO6)cn(C)c5n4)c3Cl)c2Cl)ccc1CNC[C@@H]1CCC(=O)N1 [Cmpd 58, (S)-5-(((4-(3-chloro-4-(2-chloro-3-(1-methyl-3-(((((S)-oxetan-2-yl)methyl)amino)methyl)-1H-pyrrolo[2,3-b]pyridin-6-yl)phenyl)pyridin-2-yl)-2-methoxybenzyl)amino)methyl)pyrrolidin-2-one]
50.8 nM	COc1cc(-c2nccc(-c3cccc(-c4ccc5c(CNC6CCOCC6)cn(C)c5n4)c3Cl)c2Cl)ccc1CNC[C@@H]1CCC(=O)N1 [Cmpd 59, (S)-5-(((4-(3-chloro-4-(2-chloro-3-(1-methyl-3-(((tetrahydro-2H-pyran-4-yl)amino)methyl)-1H-pyrrolo[2,3-b]pyridin-6-yl)phenyl)pyridin-2-yl)-2-methoxybenzyl)amino)methyl)pyrrolidin-2-one]
44.6 nM	COc1cc(-c2nccc(-c3cccc(-c4ccc5c(CNC6CCS(=O)(=O)CC6)cn(C)c5n4)c3Cl)c2Cl)ccc1CNC[C@@H]1CCC(=O)N1 [Cmpd 60, (S)-5-(((4-(3-chloro-4-(2-chloro-3-(3-(((1,1-dioxidotetrahydro-2H-thiopyran-4-yl)amino)methyl)-1-methyl-1H-pyrrolo[2,3-b]pyridin-6-yl)phenyl)pyridin-2-yl)-2-methoxybenzyl)amino)methyl)pyrrolidin-2-one]
75.5 nM	COc1nc(-c2cccc(-c3ccnc(-c4cc(F)c5c(c4)CCN(C[C@@H]4CCC(=O)N4)C5)c3Cl)c2Cl)ccc1CNC[C@@H]1CCC(=O)N1 [Cmpd 61, (S)-5-((((6-(2-chloro-3-(3-chloro-2-(8-fluoro-2-(((S)-5-oxopyrrolidin-2-yl)methyl)-1,2,3,4-tetrahydroisoquinolin-6-yl)pyridin-4-yl)phenyl)-2-methoxypyridin-3-yl)methyl)amino)methyl)pyrrolidin-2-one]
27 nM	COc1cc(-c2nccc(-c3cccc(-c4ccc(CNC[C@@H]5CCC(=O)N5)c(OC)n4)c3Cl)c2Cl)cc2c1CN(CC1CCN(C(C)=O)CC1)CC2 [Cmpd 62, (S)-5-((((6-(3-(2-(2-((1-acetylpiperidin-4-yl)methyl)-8-methoxy-1,2,3,4-tetrahydroisoquinolin-6-yl)-3-chloropyridin-4-yl)-2-chlorophenyl)-2-methoxypyridin-3-yl)methyl)amino)methyl)pyrrolidin-2-one]
40.8 nM	COc1cc(-c2nccc(-c3cccc(-c4ccc(CNC[C@@H]5CCC(=O)N5)c(OC)n4)c3Cl)c2Cl)cc2c1CN(CCCF)CC2 [Cmpd 63, (S)-5-((((6-(2-chloro-3-(3-chloro-2-(2-(3-fluoropropyl)-8-methoxy-1,2,3,4-tetrahydroisoquinolin-6-yl)pyridin-4-yl)phenyl)-2-methoxypyridin-3-yl)methyl)amino)methyl)pyrrolidin-2-one]
71.9 nM	COc1cc(-c2nccc(-c3cccc(-c4ccc(CNC[C@@H]5CCC(=O)N5)c(OC)n4)c3Cl)c2Cl)cc2c1CN(CCC1CCNCC1)CC2 [Cmpd 64, (S)-5-((((6-(2-chloro-3-(3-chloro-2-(8-methoxy-2-(2-(piperidin-4-yl)ethyl)-1,2,3,4-tetrahydroisoquinolin-6-yl)pyridin-4-yl)phenyl)-2-methoxypyridin-3-yl)methyl)amino)methyl)pyrrolidin-2-one]
194 nM	COc1nc(-c2cccc(-c3ccnc(-c4cc(F)c5c(c4)CCN(CCCF)C5)c3Cl)c2Cl)ccc1CNC[C@@H]1CCC(=O)N1 [Cmpd 65, (S)-5-((((6-(2-chloro-3-(3-chloro-2-(8-fluoro-2-(3-fluoropropyl)-1,2,3,4-tetrahydroisoquinolin-6-yl)pyridin-4-yl)phenyl)-2-methoxypyridin-3-yl)methyl)amino)methyl)pyrrolidin-2-one]
101 nM	COc1nc(-c2cccc(-c3ccnc(-c4cc(Cl)c5c(c4)CCN(C[C@@H]4CCC(=O)N4)C5)c3Cl)c2Cl)ccc1CNC[C@@H]1CCC(=O)N1 [Cmpd 67, (S)-5-((((6-(2-chloro-3-(3-chloro-2-(8-chloro-2-(((S)-5-oxopyrrolidin-2-yl)methyl)-1,2,3,4-tetrahydroisoquinolin-6-yl)pyridin-4-yl)phenyl)-2-methoxypyridin-3-yl)methyl)amino)methyl)pyrrolidin-2-one]
413 nM	COc1cc(-c2nccc(-c3cccc(-c4ccc(CNC[C@@H]5CCC(=O)N5)c(OC)n4)c3Cl)c2Cl)ccc1CN1CCC[C@H]1C(=O)OC(C)C [Cmpd 68, isopropyl (4-(3-chloro-4-(2-chloro-3-(6-methoxy-5-(((((S)-5-oxopyrrolidin-2-yl)methyl)amino)methyl)pyridin-2-yl)phenyl)pyridin-2-yl)-2-methoxybenzyl)-L-prolinate]
56.6 nM	COc1nc(-c2cccc(-c3ccnc(-c4cc(Cl)c5c(c4)CCN(C[C@H](C)O)C5)c3Cl)c2Cl)ccc1CNC[C@@H]1CCC(=O)N1 [Cmpd 69, (S)-5-((((6-(2-chloro-3-(3-chloro-2-(8-chloro-2-((S)-2-hydroxypropyl)-1,2,3,4-tetrahydroisoquinolin-6-yl)pyridin-4-yl)phenyl)-2-methoxypyridin-3-yl)methyl)amino)methyl)pyrrolidin-2-one]
49.4 nM	COc1cc(-c2nccc(-c3cccc(-c4ccc(CNC[C@@H]5CCC(=O)N5)c(OC)n4)c3Cl)c2Cl)ccc1CNCCO [Cmpd 70, (S)-5-((((6-(2-chloro-3-(3-chloro-2-(4-(((2-hydroxyethyl)amino)methyl)-3-methoxyphenyl)pyridin-4-yl)phenyl)-2-methoxypyridin-3-yl)methyl)amino)methyl)pyrrolidin-2-one]
